Measurements as given in ChEMBL document CHEMBL3217697, “The discovery of a novel prototype small molecule TLR7 agonist for the treatment of hepatitis C virus infection” (Medchemcomm, 2011).
pEC50: −log10 of the molar value. Calls of active or inactive are those of the source. The calls are words filed in the database; no cut-off is given here.

Tests used:
[1] = Intrinsic clearance in human liver microsomes; format: ADME; details: read-out: CLH
Hepatitis C virus = assay: Antiviral activity against Hepatitis C virus infected in human HuH7 cells; format: functional, organism-based; details: Hepacivirus hominis; Huh-7
[2] = Octanol-neutral aqueous buffer partition coefficient, log D of the compound at pH 7.4; format: physicochemical
[3] = Terminal half life in rat at 1 mg/kg, iv; format: ADME, organism-based; set-up: dose 1 mg/kg, route intravenous; details: in vivo, read-out: beta t1/2 (converted)
[4] = Oral bioavailability in rat at 2 mg/kg administered as suspension; format: ADME, organism-based; details: in vivo
[5] = target: Acetylcholinesterase (Homo sapiens) (UniProt P22303); assay: Inhibition of human acetylcholinesterase at 10 uM relative to control
Sequence of Acetylcholinesterase (Homo sapiens) (P22303 whole entry): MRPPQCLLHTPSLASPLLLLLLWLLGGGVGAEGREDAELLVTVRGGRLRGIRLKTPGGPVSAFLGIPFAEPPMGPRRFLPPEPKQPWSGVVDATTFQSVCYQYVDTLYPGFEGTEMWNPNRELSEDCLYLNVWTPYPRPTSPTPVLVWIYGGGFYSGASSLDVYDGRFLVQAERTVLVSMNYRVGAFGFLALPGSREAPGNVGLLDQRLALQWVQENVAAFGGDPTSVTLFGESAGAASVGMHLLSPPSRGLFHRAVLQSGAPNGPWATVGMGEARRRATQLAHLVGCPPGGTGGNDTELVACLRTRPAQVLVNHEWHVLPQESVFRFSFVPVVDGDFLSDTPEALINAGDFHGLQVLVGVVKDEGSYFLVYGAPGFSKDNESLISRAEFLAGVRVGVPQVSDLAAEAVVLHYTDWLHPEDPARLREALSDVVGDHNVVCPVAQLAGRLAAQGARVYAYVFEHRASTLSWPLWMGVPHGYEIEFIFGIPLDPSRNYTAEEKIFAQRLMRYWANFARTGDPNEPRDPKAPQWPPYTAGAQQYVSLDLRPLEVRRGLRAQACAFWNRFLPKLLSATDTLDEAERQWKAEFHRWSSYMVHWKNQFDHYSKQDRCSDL

Mus musculus = assay: Stimulation of IFN-alpha production in po dosed CD-1 mouse; format: functional, organism-based
[6] = Clearance in dog at 0.1 mg/kg, iv; format: ADME, organism-based, Canis lupus familiaris; set-up: dose 0.1 mg/kg, route intravenous; details: in vivo
[7] = target: T1, Adenosine receptor A1 (Homo sapiens) (UniProt P30542); assay: Inhibition of adenosine A1 receptor (unknown origin) at 10 uM relative to control
T1 sequence (whole entry): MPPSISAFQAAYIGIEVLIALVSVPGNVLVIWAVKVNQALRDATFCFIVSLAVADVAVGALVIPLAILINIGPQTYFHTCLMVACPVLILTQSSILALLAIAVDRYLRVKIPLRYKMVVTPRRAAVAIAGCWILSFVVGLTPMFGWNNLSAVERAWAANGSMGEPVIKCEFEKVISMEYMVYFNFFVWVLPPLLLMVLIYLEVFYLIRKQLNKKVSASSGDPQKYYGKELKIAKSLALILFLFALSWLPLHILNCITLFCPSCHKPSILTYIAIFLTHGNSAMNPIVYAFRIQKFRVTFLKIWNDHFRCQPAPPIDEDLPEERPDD

[8] = target: Adenosine receptor A2a (Homo sapiens) (UniProt P29274); assay: Inhibition of adenosine A2A receptor (unknown origin) at 10 uM relative to control
Sequence of Adenosine receptor A2a (Homo sapiens) (P29274 whole entry): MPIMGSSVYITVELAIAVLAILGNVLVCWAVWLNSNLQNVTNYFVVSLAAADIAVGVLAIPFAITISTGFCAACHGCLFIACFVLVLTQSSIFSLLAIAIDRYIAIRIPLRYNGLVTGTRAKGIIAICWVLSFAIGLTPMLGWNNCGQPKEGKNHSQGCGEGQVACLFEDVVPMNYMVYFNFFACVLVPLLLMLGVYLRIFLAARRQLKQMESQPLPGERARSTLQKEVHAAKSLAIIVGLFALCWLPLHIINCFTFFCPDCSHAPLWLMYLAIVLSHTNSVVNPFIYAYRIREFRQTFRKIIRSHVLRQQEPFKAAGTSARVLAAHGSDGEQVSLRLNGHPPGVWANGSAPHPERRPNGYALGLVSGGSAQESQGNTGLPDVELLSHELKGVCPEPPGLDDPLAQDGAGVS

[9] = Volume of distribution at steady state in rat at 1 mg/kg, iv; format: ADME, organism-based; set-up: dose 1 mg/kg, route intravenous; details: in vivo, read-out: Vdss
[10] = Clearance in rat at 1 mg/kg, iv; format: ADME, organism-based; set-up: dose 1 mg/kg, route intravenous; details: in vivo
[11] = Volume of distribution at steady state in dog at 0.1 mg/kg, iv; format: ADME, organism-based, Canis lupus familiaris; set-up: dose 0.1 mg/kg, route intravenous; details: in vivo, read-out: Vdss
[12] = Oral bioavailability in rat at 2 mg/kg administered as solution; format: ADME, organism-based; details: in vivo
[13] = Oral bioavailability in rat at 2 mg/kg administered as nano suspension; format: ADME, organism-based; details: in vivo
[14] = Terminal half life in dog at 0.1 mg/kg, iv; format: ADME, organism-based, Canis lupus familiaris; set-up: dose 0.1 mg/kg, route intravenous; details: in vivo, read-out: beta t1/2 (converted)

Row | Compound | microsomal CLint [1] [µL/min/mg] | Activity (Hepatitis C virus) | logD [2] | also measured
1 | Cc1nc(N)c2nc(O)n(Cc3ccccc3)c2n1 | < 7 | inactive | – | –
2 | Cc1nc(N)c2c(n1)N(Cc1ccccc1)C(=O)C2 | < 7 | inactive | 2 | –
3 | Cc1cc(N)c2[nH]c(=O)n(Cc3ccccc3)c2n1 | < 7 | inactive | 2.3 | –
4 | CCCc1cc2c([nH]c(=O)n2Cc2ccccc2)c(N)n1 | 14 | – | 3.1 | –
5 | CC(C)c1cc2c([nH]c(=O)n2Cc2ccccc2)c(N)n1 | < 7 | – | 3.1 | –
6 | Cc1nc(N)c2sc(=O)n(Cc3ccccc3)c2n1 | – | inactive | – | –
7 | O=c1[nH]c2cnc(C(F)(F)F)cc2n1Cc1ccccc1 | < 7 | – | 3.1 | –
8 | Cc1cc2c([nH]c(=O)n2Cc2ccccc2)c(N)n1 | < 7 | inactive | 2.3 | –
9 | Cc1nc(N)c2[nH]c(=O)n(Cc3ccccc3)c2c1C | < 7 | inactive | 2.6 | –
10 | Cc1nc(N)c2c(n1)N(Cc1ccccc1)C(=O)NC2 | 16 | inactive | 1.6 | –
11 | O=c1[nH]n2c(O)nc(C3CC3)cc2c1Cc1ccccc1 | < 7 | inactive | 1.7 | –
12 | Nc1nc(C(F)(F)F)cc2c1[nH]c(=O)n2Cc1ccccc1 | < 7 | – | – | half-life [3]: 1 h; bioavailability [4]: 69%; inhibition [5]: 70%; pEC50 (Mus musculus): 7.24; clearance [6]: 6 mL/min/kg; inhibition [7]: 29%; inhibition [8]: 32%; Vd [9]: 2.7 L/kg; clearance [10]: 33 mL/min/kg; Vd [11]: 2.3 L/kg; bioavailability [12]: 48%; bioavailability [13]: 71%; half-life [14]: 5.5 h
13 | Nc1cc(C2CC2)nc2c(Cc3ccccc3)c(=O)[nH]n12 | < 7 | inactive | 1.6 | –
14 | Nc1nccc2c1[nH]c(=O)n2Cc1ccccc1 | < 7 | – | 1.9 | –
15 | COCCNc1nc(N)c2c(O)nn(Cc3ccccc3)c2n1 | – | inactive | – | –
